From BindingDB's records for doi:10.1021/jm00073a012 (Glaxo Group Research, 1993) come the findings set out here.

This experiment deals with T1, Dimer of Gag-Pol polyprotein [489-587] (Human immunodeficiency virus 1, UniProt P12497).
T1 construct: 489-587
As to the kind of experiment: Protease Inhibition Assay. The note with it: pH 6; 37 °C. The method, then:
IC50 values were obtained by assaying the enzyme against the synthetic substrate peptide KQGTVSFNFPQIT, which was tritiated at the proline residue, and then was coupled via its N-terminal lysine to an Affi-gel bead mixture. The assay was performed in 96-well microtiter filtration plates. The plates containing HIV protease and radiolabeled substrate beads were incubated with or without inhibitor. After filtration, radioactivity was measured using an LKB 1205 Microbeta liquid scintillation counter. IC50 determinations were performed in duplicate at each concentration with mean values used for data analysis.

One may read the IC50 as the concentration that inhibits the measured activity by half.

A value given as a limit tells only on which side of the number the result lay.

The compound `C[C@H](Cc1ccccc1)NC(=O)[C@@H]1N[C@@H]([C@H](NC(=O)Cc2ccccc2)C(=O)NCc2ccccc2)SC1(C)C` [(2R,4S)-2-[(R)-(benzylcarbamoyl)(1-phenylacetamido)methyl]-5,5-dimethyl-N-[(2R)-1-phenylpropan-2-yl]-1,3-thiazolidine-4-carboxamide] came in with an IC50 of over 180 µM.
For `C[C@@H](Cc1ccccc1)NC(=O)[C@@H]1N[C@@H]([C@H](NC(=O)Cc2ccccc2)C(=O)NCc2ccccc2)SC1(C)C` [(2R,4S)-2-[(R)-(benzylcarbamoyl)(1-phenylacetamido)methyl]-5,5-dimethyl-N-[(2S)-1-phenylpropan-2-yl]-1,3-thiazolidine-4-carboxamide] the value was over 180 µM.
Compound `CCC(C)C(CO)NC(=O)[C@@H]1N[C@@H]([C@H](NC(=O)Cc2ccccc2)C(=O)NCc2ccccc2)SC1(C)C` (stereo partly drawn) [(2R,4S)-2-[(R)-(benzylcarbamoyl)(1-phenylacetamido)methyl]-N-(1-hydroxy-3-methylpentan-2-yl)-5,5-dimethyl-1,3-thiazolidine-4-carboxamide] yielded an IC50 of over 0.54 µM.
To `CC1(C)S[C@H]([C@H](NC(=O)Cc2ccccc2)C(=O)NCc2ccccc2)N[C@H]1C(=O)NCCNC(=O)[C@@H]1N[C@@H]([C@H](NC(=O)Cc2ccccc2)C(=O)NCc2ccccc2)SC1(C)C` [(2R,4S)-2-[(R)-(benzylcarbamoyl)(1-phenylacetamido)methyl]-N-(2-{[(2R,4S)-2-[(R)-(benzylcarbamoyl)(1-phenylacetamido)methyl]-5,5-dimethyl-1,3-thiazolidin-4-yl]formamido}ethyl)-5,5-dimethyl-1,3-thiazolidine-4-carboxamide] belongs 0.0009 µM.
To `CC(C)[C@H](CO)NC(=O)[C@@H]1N[C@@H]([C@H](NC(=O)Cc2ccccc2)C(=O)NCc2ccccc2)SC1(C)C` [(2R,4S)-2-[(R)-(benzylcarbamoyl)(1-phenylacetamido)methyl]-N-[(2R)-1-hydroxy-3-methylbutan-2-yl]-5,5-dimethyl-1,3-thiazolidine-4-carboxamide] belongs over 4.7 µM; to `CC(C)C[C@H](CO)NC(=O)[C@@H]1N[C@@H]([C@H](NC(=O)Cc2ccccc2)C(=O)NCc2ccccc2)SC1(C)C` [(2R,4S)-2-[(R)-(benzylcarbamoyl)(1-phenylacetamido)methyl]-N-[(2R)-1-hydroxy-4-methylpentan-2-yl]-5,5-dimethyl-1,3-thiazolidine-4-carboxamide], over 4.6 µM; to `C[C@H](CO)NC(=O)[C@@H]1N[C@@H]([C@H](NC(=O)Cc2ccccc2)C(=O)NCc2ccccc2)SC1(C)C` [(2R,4S)-2-[(R)-(benzylcarbamoyl)(1-phenylacetamido)methyl]-N-[(2R)-1-hydroxypropan-2-yl]-5,5-dimethyl-1,3-thiazolidine-4-carboxamide], over 20 µM.
`CC1(C)S[C@H]([C@H](NC(=O)Cc2ccccc2)C(=O)NCc2ccccc2)N[C@H]1C(=O)N[C@H](CO)Cc1ccccc1` [(2R,4S)-2-[(R)-(benzylcarbamoyl)(1-phenylacetamido)methyl]-N-[(2S)-1-hydroxy-3-phenylpropan-2-yl]-5,5-dimethyl-1,3-thiazolidine-4-carboxamide]: the IC50 was over 170 µM.
For `CC1(C)S[C@H]([C@H](NC(=O)Cc2ccccc2)C(=O)NCc2ccccc2)N[C@H]1C(N)=O` [[2R-[2a(R*),4B]]-4-Carbamoyl-5,5-dimethyl-a-[(phenylacetyl)amino]-N-(phenylmethyl)-2-thiazolidineacetamide] the value was over 230 µM.
